Experimental findings from patent US10780090B2, “Heteroaryl compounds useful as inhibitors of SUMO activating enzyme” (Millennium Pharmaceuticals, Inc., priority 2014, dated 2020) are described below.

Some results are limits rather than exact numbers.

This test addresses recombinant human SAE enzyme (Homo sapiens (Human), UniProt Q9UBT2). The test is described as follows: SAE HTRF enzyme assay. The following applies: for Percent Inhibition: SAE inhibition at compound concentration 0.111 μM; for IC50: SAE inhibition, class symbols, legend in nM. The test is classed as biochemical. In outline:
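HTRF read-out using Eu-cryptate anti-Flag and allophycocyanin anti-GST antibodies, added with EDTA stop buffer and read after 2 h at 24 °C. The preceding reaction ran 105 min at 24 °C: 0.11 nM recombinant SAE, 0.5 μM ATP, Sumo-Flag, Ubc9-GST, pH 7.5. Values given as single-concentration inhibition or IC50.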

Chain of recombinant human SAE enzyme (Q9UBT2 whole entry): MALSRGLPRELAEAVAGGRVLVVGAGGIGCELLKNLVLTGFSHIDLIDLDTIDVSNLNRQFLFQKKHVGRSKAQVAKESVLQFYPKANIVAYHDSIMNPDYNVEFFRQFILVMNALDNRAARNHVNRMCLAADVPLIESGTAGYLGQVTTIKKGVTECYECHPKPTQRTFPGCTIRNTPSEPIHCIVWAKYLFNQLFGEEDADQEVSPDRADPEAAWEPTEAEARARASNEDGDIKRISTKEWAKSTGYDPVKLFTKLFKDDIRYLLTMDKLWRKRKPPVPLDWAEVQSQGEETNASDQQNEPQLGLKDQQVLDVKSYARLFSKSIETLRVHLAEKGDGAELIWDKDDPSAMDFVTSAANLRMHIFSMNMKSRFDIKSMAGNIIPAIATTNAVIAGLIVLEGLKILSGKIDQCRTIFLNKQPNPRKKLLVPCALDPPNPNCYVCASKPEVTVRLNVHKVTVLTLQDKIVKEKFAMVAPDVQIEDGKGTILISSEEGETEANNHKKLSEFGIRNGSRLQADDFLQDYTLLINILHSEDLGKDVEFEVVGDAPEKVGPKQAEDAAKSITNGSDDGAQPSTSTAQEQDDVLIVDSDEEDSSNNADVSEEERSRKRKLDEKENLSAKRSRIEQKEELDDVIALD
Chain of recombinant human SAE enzyme (Q9UBE0 whole entry partner): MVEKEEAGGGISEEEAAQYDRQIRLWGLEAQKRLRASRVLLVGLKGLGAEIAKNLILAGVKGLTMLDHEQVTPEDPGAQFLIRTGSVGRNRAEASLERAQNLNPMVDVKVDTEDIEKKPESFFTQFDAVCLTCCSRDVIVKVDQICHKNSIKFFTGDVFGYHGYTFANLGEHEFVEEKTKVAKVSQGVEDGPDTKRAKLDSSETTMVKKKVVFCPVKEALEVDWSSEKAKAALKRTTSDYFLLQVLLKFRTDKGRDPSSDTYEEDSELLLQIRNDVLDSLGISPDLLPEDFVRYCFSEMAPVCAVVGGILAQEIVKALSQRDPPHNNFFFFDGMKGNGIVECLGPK

The term IC50 denotes the concentration at which inhibition is half-maximal. With `NS(=O)(=O)OC[C@H]1C[C@@H](Nc2ncncc2C(=O)c2cc([C@@H]3SCCc4ccc(Cl)cc43)cs2)C[C@@H]1O.NS(=O)(=O)OC[C@H]1C[C@@H](Nc2ncncc2C(=O)c2cc([C@H]3SCCc4ccc(Cl)cc43)cs2)C[C@@H]1O` (mixture of isomers) [I-320, [(1R,2S,4R)-4-{[5-({4-[(1R)-7-chloro-3,4-dihydro-1H-isothiochromen-1-yl]-2-thienyl}carbonyl)pyrimidin-4-yl]amino}-2-hydroxycyclopentyl]methyl sulfamate and [(1R,2S,4R)-4-{[5-({4-[(1S)-7-chloro-3,4-dihydro-1H-isothiochromen-1-yl]-2-thienyl}carbonyl)pyrimidin-4-yl]amino}-2-hydroxycyclopentyl]methyl sulfamate], the “Percent Inhibition” value came to 92% and the IC50 was in the range of 10 to 100 nM.

For `C[C@@]1(c2csc(C(=O)c3cncnc3N[C@@H]3C[C@H](COS(N)(=O)=O)[C@@H](O)C3)c2)NCCc2ccc(Cl)cc21` (mixture of isomers) [I-321, [(1R,2S,4R)-4-{[5-({4-[(1R)-7-chloro-1-methyl-1,2,3,4-tetrahydroisoquinolin-1-yl]-2-thienyl}carbonyl)pyrimidin-4-yl]amino}-2-hydroxycyclopentyl]methyl sulfamate and [(1R,2S,4R)-4-{[5-({4-[(1S)-7-chloro-1-methyl-1,2,3,4-tetrahydroisoquinolin-1-yl]-2-thienyl}carbonyl)pyrimidin-4-yl]amino}-2-hydroxycyclopentyl]methyl sulfamate], the “Percent Inhibition” value came out at 94% and the IC50 is less than 10 nM.

For `CN1Cc2cc(Cl)ccc2[C@@H]1c1csc(C(=O)c2cncnc2N[C@@H]2C[C@H](COS(N)(=O)=O)[C@@H](O)C2)c1` (mixture of isomers) [I-322, [(1R,2S,4R)-4-{[5-({4-[(1R)-5-chloro-2-methyl-2,3-dihydro-1H-isoindol-1-yl]-2-thienyl}carbonyl)pyrimidin-4-yl]amino}-2-hydroxycyclopentyl]methyl sulfamate and [(1R,2S,4R)-4-{[5-({4-[(1S)-5-chloro-2-methyl-2,3-dihydro-1H-isoindol-1-yl]-2-thienyl}carbonyl)pyrimidin-4-yl]amino}-2-hydroxycyclopentyl]methyl sulfamate], the “Percent Inhibition” value is 92% and the IC50 is 10 to 100 nM.

Turning to `NS(=O)(=O)OC[C@H]1C[C@@H](Nc2ncncc2C(=O)c2cc([C@@H]3OCCc4cnc(Cl)cc43)c(Cl)s2)C[C@@H]1O` (mixture of isomers) [I-323, [(1R,2S,4R)-4-{[5-({5-chloro-4-[(1R)-7-chloro-3,4-dihydro-1H-pyrano[4,3-c]pyridin-1-yl]-2-thienyl}carbonyl)pyrimidin-4-yl]amino}-2-hydroxycyclopentyl]methyl sulfamate and [(1R,2S,4R)-4-{[5-({5-chloro-4-[(1S)-7-chloro-3,4-dihydro-1H-pyrano[4,3-c]pyridin-1-yl]-2-thienyl}carbonyl)pyrimidin-4-yl]amino}-2-hydroxycyclopentyl]methyl sulfamate], the “Percent Inhibition” value was found to be 90% and the IC50 lay within 10 to 100 nM.

For `N#Cc1sc(C(=O)c2cncnc2N[C@@H]2C[C@H](COS(N)(=O)=O)[C@@H](O)C2)cc1[C@@H]1OCCc2ccccc21` (mixture of isomers) [I-324, [(1R,2S,4R)-4-{[5-({5-cyano-4-[(1R)-3,4-dihydro-1H-isochromen-1-yl]-2-thienyl}carbonyl)pyrimidin-4-yl]amino}-2-hydroxycyclopentyl]methyl sulfamate and [(1R,2S,4R)-4-{[5-({5-cyano-4-[(1S)-3,4-dihydro-1H-isochromen-1-yl]-2-thienyl}carbonyl)pyrimidin-4-yl]amino}-2-hydroxycyclopentyl]methyl sulfamate], the “Percent Inhibition” value came to 91% and the IC50 was in the range of 10 to 100 nM.

Turning to `NS(=O)(=O)OC[C@H]1C[C@@H](Nc2ncncc2C(=O)c2ccc([C@@H]3OCCc4c(Cl)cccc43)s2)C[C@@H]1O` (mixture of isomers) [I-325, [(1R,2S,4R)-4-{[5-({5-[(1R)-5-chloro-3,4-dihydro-1H-isochromen-1-yl]-2-thienyl}carbonyl)pyrimidin-4-yl]amino}-2-hydroxycyclopentyl]methyl sulfamate and [(1R,2S,4R)-4-{[5-({5-[(1S)-5-chloro-3,4-dihydro-1H-isochromen-1-yl]-2-thienyl}carbonyl)pyrimidin-4-yl]amino}-2-hydroxycyclopentyl]methyl sulfamate], the “Percent Inhibition” value is 60% and the IC50 fell in the range of 10 to 100 nM.

Regarding `NS(=O)(=O)OC[C@H]1C[C@@H](Nc2ncncc2C(=O)c2cc([C@@H]3OC(=O)c4ccc(Cl)cc43)c(Cl)s2)C[C@@H]1O` (mixture of isomers) [I-327, [(1R,2S,4R)-4-{[5-({5-chloro-4-[(1R)-6-chloro-3-oxo-1,3-dihydro-2-benzofuran-1-yl]-2-thienyl}carbonyl)pyrimidin-4-yl]amino}-2-hydroxycyclopentyl]methyl sulfamate and [(1R,2S,4R)-4-{[5-({5-chloro-4-[(1S)-6-chloro-3-oxo-1,3-dihydro-2-benzofuran-1-yl]-2-thienyl}carbonyl)pyrimidin-4-yl]amino}-2-hydroxycyclopentyl]methyl sulfamate], the “Percent Inhibition” value came out at 51% and the half-inhibitory concentration (IC50) is 100 to 1000 nM.

`Cc1sc(C(=O)c2cncnc2N[C@@H]2C[C@H](COS(N)(=O)=O)[C@@H](O)C2)cc1[C@@H]1OCCc2ccc(CN(C)C)cc21` (mixture of isomers) [I-329, [(1R,2S,4R)-4-({5-[(4-{(1R)-7-[(dimethylamino)methyl]-3,4-dihydro-1H-isochromen-1-yl}-5-methyl-2-thienyl)carbonyl]pyrimidin-4-yl}amino)-2-hydroxycyclopentyl]methyl sulfamate and [(1R,2S,4R)-4-({5-[(4-{(1S)-7-[(dimethylamino)methyl]-3,4-dihydro-1H-isochromen-1-yl}-5-methyl-2-thienyl)carbonyl]pyrimidin-4-yl}amino)-2-hydroxycyclopentyl]methyl sulfamate]: the “Percent Inhibition” value is reported as 36% and the IC50 was 100 to 1000 nM.

As for `Cc1cc2n(n1)CCO[C@H]2c1csc(C(=O)c2cncnc2N[C@@H]2C[C@H](COS(N)(=O)=O)[C@@H](O)C2)c1` (mixture of isomers) [I-332, [(1R,2S,4R)-2-hydroxy-4-{[5-({4-[(4S)-2-methyl-6,7-dihydro-4H-pyrazolo[5,1-c][1,4]oxazin-4-yl]-2-thienyl}carbonyl)pyrimidin-4-yl]amino}cyclopentyl]methyl sulfamate and [(1R,2S,4R)-2-hydroxy-4-{[5-({4-[(4R)-2-methyl-6,7-dihydro-4H-pyrazolo[5,1-c][1,4]oxazin-4-yl]-2-thienyl}carbonyl)pyrimidin-4-yl]amino}cyclopentyl]methyl sulfamate], the “Percent Inhibition” value was determined as 25% and the IC50 was 100 to 1000 nM.

With `Cc1cnn2c1[C@H](c1csc(C(=O)c3cncnc3N[C@@H]3C[C@H](COS(N)(=O)=O)[C@@H](O)C3)c1)OCC2` (mixture of isomers) [I-333, [(1R,2S,4R)-2-hydroxy-4-{[5-({4-[(4S)-3-methyl-6,7-dihydro-4H-pyrazolo[5,1-c][1,4]oxazin-4-yl]-2-thienyl}carbonyl)pyrimidin-4-yl]amino}cyclopentyl]methyl sulfamate and [(1R,2S,4R)-2-hydroxy-4-{[5-({4-[(4R)-3-methyl-6,7-dihydro-4H-pyrazolo[5,1-c][1,4]oxazin-4-yl]-2-thienyl}carbonyl)pyrimidin-4-yl]amino}cyclopentyl]methyl sulfamate], the “Percent Inhibition” value worked out at 15% and the IC50 is 100 to 1000 nM.

As to `CC(C)(C)OC(=O)N1CCc2ccc(Cl)cc2[C@@H]1c1csc(C(=O)c2cncnc2N[C@@H]2C[C@H](COS(N)(=O)=O)[C@@H](O)C2)c1.CC(C)(C)OC(=O)N1CCc2ccc(Cl)cc2[C@H]1c1csc(C(=O)c2cncnc2N[C@@H]2C[C@H](COS(N)(=O)=O)[C@@H](O)C2)c1` (mixture of isomers) [I-334, tert-butyl (1R)-7-chloro-1-(5-{[4-({(1R,3S,4R)-3-hydroxy-4-[(sulfamoyloxy)methyl]cyclopentyl}amino)pyrimidin-5-yl]carbonyl}-3-thienyl)-3,4-dihydroisoquinoline-2(1H)-carboxylate and tert-butyl (1S)-7-chloro-1-(5-{[4-({(1R,3S,4R)-3-hydroxy-4-[(sulfamoyloxy)methyl]cyclopentyl}amino)pyrimidin-5-yl]carbonyl}-3-thienyl)-3,4-dihydroisoquinoline-2(1H)-carboxylate], the “Percent Inhibition” value was 10% and the concentration for half-maximal inhibition (IC50) is 100 to 1000 nM.

With `CC(C)(C)OC(=O)N1CCc2ccc(Cl)cc2[C@@H]1c1cc(C(=O)c2cncnc2N[C@@H]2C[C@H](COS(N)(=O)=O)[C@@H](O)C2)sc1Cl.CC(C)(C)OC(=O)N1CCc2ccc(Cl)cc2[C@H]1c1cc(C(=O)c2cncnc2N[C@@H]2C[C@H](COS(N)(=O)=O)[C@@H](O)C2)sc1Cl` (mixture of isomers) [I-336, tert-butyl (1R)-7-chloro-1-(2-chloro-5-{[4-({(1R,3S,4R)-3-hydroxy-4-[(sulfamoyloxy)methyl]cyclopentyl}amino)pyrimidin-5-yl]carbonyl}-3-thienyl)-3,4-dihydroisoquinoline-2(1H)-carboxylate and tert-butyl (1S)-7-chloro-1-(2-chloro-5-{[4-({(1R,3S,4R)-3-hydroxy-4-[(sulfamoyloxy)methyl]cyclopentyl}amino)pyrimidin-5-yl]carbonyl}-3-thienyl)-3,4-dihydroisoquinoline-2(1H)-carboxylate], the “Percent Inhibition” value was 15% and the IC50 fell in the range of 100 to 1000 nM.
